The record followed here is patent publication US20200216463A1, “THAILANSTATIN ANALOGS” (priority 2017, published 2020).

SMILES strings stand for the structures. pIC50: −log10 of the molar value.

For assay [1], the system named is PANC 05.04. Kind of assay: In vitro cytotoxicity on pancreatic cancer cell line (Example 12). In kind it is cell-based, human. The protocol:
(§1) Various cancer cell lines were obtained from the American Type Culture Collection (ATCC)). The cells were cultured in a humidified 5% CO2 incubator in a media consisting of RPMI 1640, L-glutamine, and 10% FBS. The cells were passaged as needed using standard tissue culture techniques. The cells were harvested and plated out into 96-well tissue culture treated plates at a density of 5000 cells per well. After allowing the cells to equilibrate for ˜24 hr in a humidified 5% CO2 incubator, the cells were treated with the test compounds at the indicated concentrations. The cells were exposed to the test compounds for three days with no media change. After the treatment period, CellTiter-Glo) Luminescent Cell Viability Assay reagent solution (Promega, Inc., Madison, Wis.; Cat. # G7573) was introduced to each well. The Cell TiterGlo-containing plates were then read on a SpectroMax® iD3 Multi-Mode Microplate reader (Molecular Devices, LLC, San Jose, Calif.). The degree of luminescence was dictated by the abundance of live cells.

The subject of assay [2] is PANC 10.05. Described as above. In kind it is cell-based, human. The method, then:
as §1

For assay [3], the system named is HCT 116 cells. Kind of assay: In vitro cytotoxicity, CellTiter-Glo, 72 h (Example 11). To be noted: Homo sapiens, HCT-116, 72 h. The format is cell-based. The method, then:
Alternatively, the in vitro cytotoxicity of the compounds of the invention may be measured as described in this example. 180 μl of HCT 116 cells (ATCC, Cat # CCL-247) in McCoy's 5a Medium Modified (Sigma-Aldrich), St. Louis, Mo.)+10% fetal bovine serum were seeded at a density of 5,000 cells/well in a white opaque 96-well plate and incubated for 24 hours at […] in a 5% CO2 incubator. Twenty-four hours post cell seeding, 20 μl of 10× test compounds were diluted such that the final concentrations of the test compounds were in μM concentration. Half log dilutions were used, starting from 10 μM through 0.0001 μM. Puromycin and untreated cells were used as […]. The cells were incubated with the compounds for 72 hours at […] in a 5% CO2 incubator. After 72 hrs, 100 μl/well of CellTiter-Glo® Luminescent Cell Viability Assay reagent (Promega, Inc., Madison, Wis.; Cat # G7573) was added to the plates and incubated at room temperature for 30 minutes. The luminescence signals were captured using EnVision 2105 Multimode Plate Reader (PerkinElmer, Waltham, Mass.). The data were analyzed using non-linear regression curve fit (sigmoidal dose response) in GraphPad Prism software (GraphPad Software, La Jolla, Calif.) by plotting the concentration of drug on the X-axis and the mean % inhibition values on the Y-axis.
Background: Cellular ATP, detected with luciferase, serves as a proxy for viable cell number.

As to `CC(=O)O[C@@H](C)/C=C\C(=O)N[C@@H]1C[C@H](C)[C@H](C/C=C(C)/C=C/[C@H]2O[C@H](CC(=O)O)C[C@@]3(CO3)[C@@H]2O)O[C@@H]1C` [Thailanstatin A], the negative-log IC50 (pIC50) was 8.52 in assay [1] and 8.40 in assay [2].
For the compound `COC(=O)C[C@@H]1C[C@@]2(CO2)[C@H](O)[C@@H](/C=C/C(C)=C/C[C@@H]2O[C@H](C)[C@H](NC(=O)/C=C\C(C)c3cc(OC)no3)C[C@@H]2C)O1` (stereo partly drawn) [Compound 5, Methyl 2-((3R, 5S, 7R, 8R)-8-hydroxy-7-((1E, 3E)-5-((2S, 3S, 5R, 6R)-5-((Z)-4-(3-methoxyisoxazol-5-yl)pent-2-enamido)-3,6-dimethyltetrahydro-2H-pyran-2-yl)-3-methylpenta-1,3-dienyl)-1,6-dioxaspiro[2.5]octan-5-yl)acetate], the pIC50 in assay [3] is 6.51.

A word on the pIC50: it is the negative decadic logarithm of the IC50, by convention in mol/L.
